Measured values reported in ChEMBL document CHEMBL1129188, “Structure activity relationships of tetrahydrocannabinol analogues on human cannabinoid receptors” (Bioorg Med Chem Lett, 1996).

How the values were obtained:
[1] = molecular target: Cannabinoid receptor 2 (Homo sapiens, UniProt P34972); assay: Binding affinity against human Cannabinoid receptor 2 by using radioligand ([3H]CP-55940) assay.
[2] = molecular target: T1, Cannabinoid receptor 1 (Homo sapiens, UniProt P21554); assay: Compound was evaluated for binding affinity against human cannabinoid receptor by using radioligand ([3H]CP-55940) assay; first determination
[3] = molecular target: T1, Cannabinoid receptor 1; assay: Compound was evaluated for binding affinity against human cannabinoid receptor by using radioligand ([3H]CP-55940) assay; second determination
[4] = molecular target: Cannabinoid receptor (Homo sapiens) (UniProt P34972+P21554); assay: Ratio of binding affinity of hCB1 to hCB2 was reported; format: protein assay
[5] = molecular target: T1, Cannabinoid receptor 1; assay: Binding affinity against human cannabinoid receptor by using radioligand ([3H]CP-55940) assay.

Cannabinoid receptor (Homo sapiens), sequence (P21554 whole entry, looked up): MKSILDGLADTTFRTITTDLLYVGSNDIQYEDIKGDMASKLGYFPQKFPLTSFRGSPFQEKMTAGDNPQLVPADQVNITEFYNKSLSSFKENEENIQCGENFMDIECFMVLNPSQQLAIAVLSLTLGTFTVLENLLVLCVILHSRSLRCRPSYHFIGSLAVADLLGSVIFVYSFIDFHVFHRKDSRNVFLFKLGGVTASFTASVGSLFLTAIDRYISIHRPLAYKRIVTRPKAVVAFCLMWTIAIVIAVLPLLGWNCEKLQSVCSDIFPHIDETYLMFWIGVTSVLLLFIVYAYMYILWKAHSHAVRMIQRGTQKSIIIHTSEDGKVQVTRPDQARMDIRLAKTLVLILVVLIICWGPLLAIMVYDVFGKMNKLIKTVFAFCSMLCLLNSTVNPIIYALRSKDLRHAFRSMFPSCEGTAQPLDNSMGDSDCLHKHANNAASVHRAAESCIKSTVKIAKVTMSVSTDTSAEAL
Cannabinoid receptor (Homo sapiens), sequence (P34972 whole entry, looked up): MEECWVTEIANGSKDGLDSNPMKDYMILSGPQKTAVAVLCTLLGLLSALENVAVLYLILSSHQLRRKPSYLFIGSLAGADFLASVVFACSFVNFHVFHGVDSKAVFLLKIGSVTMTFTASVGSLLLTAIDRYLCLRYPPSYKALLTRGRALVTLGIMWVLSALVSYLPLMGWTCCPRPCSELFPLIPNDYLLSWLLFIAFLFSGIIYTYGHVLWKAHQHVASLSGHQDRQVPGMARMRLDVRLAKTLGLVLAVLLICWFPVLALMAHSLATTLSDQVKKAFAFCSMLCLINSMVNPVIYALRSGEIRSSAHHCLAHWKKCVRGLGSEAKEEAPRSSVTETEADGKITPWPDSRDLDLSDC
T1 sequence (P21554 whole entry): as the sequence (P21554 whole entry, looked up) above
Cannabinoid receptor 2, sequence (P34972 whole entry): as the sequence (P34972 whole entry, looked up) above

Structure (SMILES)	Ki [1] [nM]	Ki [2] [nM]	Ki [3] [nM]	Ratio [4]	Ki [5] [nM]
CCCCCCC(C)(C)c1cc2c(c(OP(=O)(OCC)OCC)c1)[C@@H]1CC(C)=CC[C@H]1C(C)(C)O2	442	> 20000	> 20000	> 45	
CCCCCCC(C)(C)c1cc(OC)c2c(c1)OC(C)(C)[C@@H]1CCC(=O)C[C@@H]21	132			4.7	621
CCCCCCC(C)(C)c1ccc(-c2cc(C)cc(C)c2)cc1	2140			> 14	> 30000
CCCCCCC(C)(C)c1ccc(-c2cc(C)cc(C)c2)c(O)c1	4.14			3	12.5
CCCCCCC(C)(C)c1cc(O)c2c(c1)OC(C)(C)[C@@H]1CC=C(C=O)C[C@@H]21	2.61			0.9	2.24
CCCCCCC(C)(C)c1cc(O)c2c(c1)OC(C)(C)[C@@H]1CCC(=O)C[C@@H]21 [NABILONE]	1.84			1.2	2.19
CCCCCCC(C)(C)c1cc(O)c(-c2cc(C)cc(C)c2)c(O)c1	2			40	79.1
CCCCCCC(C)(C)c1cc(OC)c(-c2cc(C)cc(C)c2)c(OC)c1	433			> 46	> 20000
CCCCCCC(C)(C)c1cc(O)c2c(c1)OC(C)(C)[C@H]1CC=C(C)C[C@H]21	28.8			1.3	38.8
C=C1CC[C@@H]2[C@@H](C1)c1c(OC)cc(C(C)(C)CCCCCC)cc1OC2(C)C	19.4			> 1000	> 20000
C=C1CC[C@@H]2[C@@H](C1)c1c(O)cc(C(C)(C)CCCCCC)cc1OC2(C)C	0.58			3.1	1.82
CCCCCCC(C)(C)c1cc(O)c([C@@H]2C=C(C)C3C[C@H]2C3(C)C)c(O)c1	41.2			9	350
CCCCCCC(C)(C)c1cc(OC)c2c(c1)OC(C)(C)[C@@H]1CC=C(C)C[C@@H]21	20			793	15800
CCCCCCC(C)(C)c1ccc2c(c1)OC(C)(C)[C@@H]1CC=C(C)C[C@@H]21	20.8			12	250
CCCCCCC(C)(C)c1cc(O)c2c(c1)OC(C)(C)[C@@H]1CC=C(C)C[C@@H]21	0.49			1.7	0.83
CCCCCCC(C)(C)c1cc(O)c2c(c1)OC(C)(C)[C@H]1CC=C(C=O)C[C@H]21	119			0.8	97
